From article PMC9078697, “Discovery and preliminary SAR of 14-aryloxy-andrographolide derivatives as antibacterial agents with immunosuppressant activity” (RSC Advances, 2018)
Read-outs that look alike come from different tables or passages of the source.

Columns and labels:
E. coli = assay: Bacteriostatic screening (growth, OD630) against E. coli; type: cell-based; details: for inhibition rate (%) EC / inhibition at 250 µM: at 250 μM of the tested compound; for IC50 / inhibition at 250 µM: Escherichia coli; for IC50: 24 h, IC50 generated when inhibition at 250 μM was higher than 80%; for inhibition at 250 µM: read-out: inhibition rate (%) EC; for inhibition rate EC (symbol /): at 250 μM of tested compound
Method: (§1) The strategy in this study was to submit these synthesized compounds to a preliminary screening test against E. coli, S. aureus and E. faecalis (ciprofloxacin was used as a reference compound; see Table 1). […] The tested compound or ciprofloxacin (positive drug) was dissolved in DMSO and diluted with LB liquid medium into a stock solution containing 20% DMSO before use; the stock solution of the carrier was 20% DMSO in LB liquid medium. All the experiments, including blank controls, were performed in triplicate. Bacteriostatic screening was performed by applying a modified protocol of the National Committee on Clinical Laboratory Standards (NCCLS).[29] Briefly, E. coli, S. aureus and E. faecalis cells (American Type Culture Collection, ATCC) were grown in LB plate medium for one passage, then seeded in LB liquid medium and cultured at 37 °C for 12 h. After being diluted 1000 times, 190 μL diluted cells were aliquoted to 96-well plates; then, 10 μL stock solution of carrier or a gradient amount of the tested compound or the positive compound, ciprofloxacin, were added; the final concentration of DMSO was 1% in all wells. The blank controls contained 1% DMSO and LB medium but no bacterial cells.

S. aureus = assay: Bacteriostatic screening (growth, OD630) against S. aureus; type: cell-based; details: for inhibition rate (%) SA / inhibition at 250 µM: at 250 μM of the tested compound; for IC50 / inhibition at 250 µM: Staphylococcus aureus; for IC50: 24 h, IC50 generated when inhibition at 250 μM was higher than 80%; for inhibition at 250 µM: read-out: inhibition rate (%) SA; for inhibition rate SA (symbol /): at 250 μM of tested compound
Method: as §1

E. faecalis = assay: Bacteriostatic screening (growth, OD630) against E. faecalis; type: cell-based; details: for IC50: 24 h, IC50 generated when inhibition at 250 μM was higher than 80%; for inhibition rate (%) EF: at 250 μM of the tested compound
Method: as §1

[1] = test system: IL-6/STAT3 signaling pathway; assay: IL-6/STAT3 luciferase reporter assay in AD-293 cells; type: cell-based; details: AD-293 reporter cells, 2.5 μg mL−1 IL-6, treated for 16 h
Source text: (§2) We utilized luciferase reporters bearing the promoter regions of TNF-α/NF-κB, TLR4/NF-κB, and IL-6/STAT3 ([ref. 25]) to examine the activities of the antibacterial active andrographolide analogs in the regulation of signaling pathways that govern inflammatory response (Table 2). […] Like their similarity in inhibitory activity against E. faecalis, E. coli and S. aureus (Table 1), 3-keto-19-alcohol compound 9b1 suppresses three signaling pathways in the same fashion as 6b17 (Table 2). […] Cells from the AD-293 cell line, a derivative of the HEK293 cell line with improved adherence and plaque formation properties, were purchased from Stratagene (La Jolla, CA, USA). The protocols were adopted and modified from our previous report.[25] All compounds were dissolved in DMSO at 10 mM as a stock solution. The final concentration of DMSO was 0.1% in the culture medium. AD-293 cells bearing luciferase reporters with promoter regions of IL-6/STAT3 and TNF-α/NF-κB in pGL4.20 vector (Promega) were maintained in DMEM high glucose medium supplemented with 10% FBS and 1% penicillin streptomycin in the presence of 1 μg mL^−1 puromycin. AD-293 cells overexpressing TLR4 and stably transfected with NF-κB reporter were maintained in DMEM high glucose medium in the presence of 1 μg mL^−1 puromycin and 10 μg mL^−1 blasticidin. All cells were maintained in a humidified incubator at 37 °C in 95% air and 5% CO2. Reporter cells were treated with 50 ng mL^−1 TNF-α to stimulate the NF-κB signaling pathway, 1 μg mL^−1 LPS to stimulate the TLR4/NF-κB signaling pathway, and 2.5 μg mL^−1 IL-6 to stimulate the IL-6/STAT3 signaling pathway. The medium was removed at the end of the treatment, cell extracts were prepared, and the luciferase activity was measured using a Luciferase assay kit (Promega) according to the manufacturer's instructions. EC50 was defined as the concentration of drug that inhibited stimulator-triggered luciferase reporter activation by 50% after continuous drug exposure for 4 (TNF-α/NF-κB) or 16 (IL-6/STAT3 and TLR4/NF-κB) hours. Each concentration was repeated 3 times independently.

[2] = test system: TLR4/NF-κB signaling pathway; assay: TLR4/NF-κB luciferase reporter assay in AD-293 cells; type: cell-based; details: AD-293 reporter cells, 1 μg mL−1 LPS, treated for 16 h
Source text: as §2

[3] = test system: TNF-α/NF-κB signaling pathway; assay: TNF-α/NF-κB luciferase reporter assay in AD-293 cells; type: cell-based; details: AD-293 reporter cells, 50 ng mL−1 TNF-α, treated for 4 h
Source text: as §2

AD-293 cells [4] = assay: Cytotoxicity (MTT) in AD-293 cells; type: cell-based; details: treated for 24 h
[5] = test system: IL-6/STAT3 signaling pathway; parameters: method as in PMID 28680097; details: AD-293 reporter cells; treated for 16 h; cited from earlier work
[6] = test system: TLR4/NF-κB signaling pathway; parameters: method as in PMID 28680097; details: AD-293 reporter cells; treated for 16 h; cited from earlier work
[7] = test system: TNF-α/NF-κB signaling pathway; parameters: method as in PMID 28680097; details: AD-293 reporter cells; treated for 4 h; cited from earlier work
AD-293 cells [8] = test system: AD-293 cells; parameters: method as in PMID 28680097; details: treated for 24 h; cited from earlier work
[9] = Cytotoxicity (MTT) in AD-293 cells; type: cell-based; details: human, AD-293 cells (HEK293 derivative), treated for 24 h

## C=C1CCC2C3(C)COC(C)(C)OC3CCC2(C)C1CC=C1C(=O)OCC1Oc1cccc2cccnc12 (stereo not drawn) [5b17, (14β)-(Quinolyl-8′-oxy)-3,19-acetonylidene andrographolide]
E. coli
  inhibition rate (%) EC: (47) %
S. aureus
  inhibition rate (%) SA: (27) %
E. faecalis
  IC50: 19.3 ± 2.3 µM
[1]
  EC50: 6.35 ± 0.77 µM
[2]
  EC50: 2.85 ± 0.07 µM
[3]
  EC50: 2.45 ± 0.49 µM
AD-293 cells [4]
  CC50: > 10 µM

## C=C1CCC2C(C)(CO)C(O)CCC2(C)C1CC=C1C(=O)OCC1Oc1cccc2cccnc12 (stereo not drawn) [6a17, (14α)-(Quinolyl-8′-oxy)andrographolide]
E. coli
  inhibition rate (%) EC: (70) %
S. aureus
  inhibition rate (%) SA: (66) %
E. faecalis
  IC50: 16.3 ± 2.1 µM
[1]
  EC50: 5.62 ± 0.13 µM
[2]
  EC50: > 10 µM
[3]
  EC50: > 10 µM
AD-293 cells [4]
  CC50: > 10 µM

## C=C1CCC2C(C)(CO)C(O)CCC2(C)C1CC=C1C(=O)OCC1Oc1ccc([N+](=O)[O-])cc1OC (stereo not drawn) [6b3, (14β)-(2′-Methoxy-4′-nitro)phenoxy-andrographolide]
S. aureus; 250 µM
  inhibition rate (%) SA: (44) %
E. faecalis
  IC50: 140 ± 11.9 µM
[5]
  EC50: > 10 µM
[6]
  EC50: 3.49 ± 0.34 µM
[7]
  EC50: 8.97 ± 1.03 µM
AD-293 cells [8]
  CC50: > 10 µM

## C=C1CC[C@@H]2[C@](C)(CO)[C@H](O)CC[C@@]2(C)[C@@H]1C/C=C1/C(=O)OC[C@@H]1Oc1cccc2cccnc12 [6b17, (14β)-(Quinolyl-8′-oxy)andrographolide]
E. coli
  IC50: 21.6 ± 1.7 µM
S. aureus
  IC50: 37.5 ± 2.2 µM
E. faecalis; Enterococcus faecalis
  IC50: 6.3 ± 1.5 µM
E. faecalis; versus 5b17
  times more active than 5b17 against E. faecalis: 3 times
[1]; Homo sapiens, AD293
  EC50: 2.41 ± 0.31 µM
[2]; Homo sapiens, AD293
  EC50: 2.65 ± 0.07 µM
[3]; Homo sapiens, AD293
  EC50: 2 ± 0.28 µM
[9]
  CC50 at 24 h: > 10 µM
other
  melting point: 134 to 136 °C

## C=C1CC[C@@H]2[C@](C)(COC(C)=O)[C@H](O)CC[C@@]2(C)[C@@H]1C/C=C1/C(=O)OC[C@@H]1Oc1cccc2cccnc12 [7b1, (14β)-(quinolyl-8′-oxy)-19-acetoxy andrographolide]
E. coli
  inhibition at 250 µM: 60%
S. aureus
  inhibition at 250 µM: 58%
E. faecalis; Enterococcus faecalis
  IC50: 8.6 ± 0.7 µM
[1]; Homo sapiens, AD293
  EC50: > 10 µM
[2]; Homo sapiens, AD293
  EC50: > 10 µM
[3]; Homo sapiens, AD293
  EC50: 4.91 ± 0.02 µM
[9]
  CC50 at 24 h: > 10 µM

## C=C1CC[C@@H]2[C@](C)(CO[Si](C)(C)C(C)(C)C)[C@H](O)CC[C@@]2(C)[C@@H]1C/C=C1/C(=O)OC[C@@H]1Oc1cccc2cccnc12 [7b2, (14β)-(quinolyl-8′-oxy)-19-(t-butyldimethylsilyloxy)andrographolide]
E. coli
  inhibition at 250 µM: 24%
S. aureus
  inhibition at 250 µM: 23%
E. faecalis; Enterococcus faecalis
  IC50: 26.2 ± 2.8 µM
other
  melting point: 149 to 151 °C

## C=C1CC[C@H]2[C@@](C)(CCC(=O)[C@@]2(C)COC(C)=O)[C@@H]1C/C=C1/C(=O)OC[C@@H]1Oc1cccc2cccnc12 [8b1, (14β)-(quinolyl-8′-oxy)-3-keto-19-acetoxy andrographolide]
E. coli
  inhibition at 250 µM: 34%
S. aureus
  inhibition at 250 µM: 42%
E. faecalis; Enterococcus faecalis
  IC50: 7.6 ± 0.8 µM
[1]; Homo sapiens, AD293
  EC50: > 10 µM
[2]; Homo sapiens, AD293
  EC50: 4.84 ± 0.31 µM
[3]; Homo sapiens, AD293
  EC50: > 10 µM
[9]
  CC50 at 24 h: > 10 µM

## C=C1CC[C@H]2[C@@](C)(CCC(=O)[C@@]2(C)CO)[C@@H]1C/C=C1/C(=O)OC[C@@H]1Oc1cccc2cccnc12 [9b, (14β)-(quinolyl-8′-oxy)-3-keto andrographolide]
E. coli
  IC50: 27.9 ± 1.5 µM
S. aureus
  IC50: 27.6 ± 1.8 µM
E. faecalis; Enterococcus faecalis
  IC50: 9.1 ± 2.1 µM
[1]; Homo sapiens, AD293
  EC50: 6.13 ± 0.39 µM
[2]; Homo sapiens, AD293
  EC50: 5.96 ± 0.03 µM
[3]; Homo sapiens, AD293
  EC50: 2.03 ± 0.01 µM
[9]
  CC50 at 24 h: > 10 µM
other
  melting point: 141 to 143 °C

## C=C1CC[C@@H]2[C@](C)(CO)[C@H](O)CC[C@@]2(C)[C@@H]1C/C=C1/C(=O)OC[C@H]1O [compound 1, Andrographolide]
[1]; Homo sapiens, AD293
  EC50: > 10 µM
[2]; Homo sapiens, AD293
  EC50: > 10 µM
[3]; Homo sapiens, AD293
  EC50: > 10 µM
[9]
  CC50 at 24 h: > 10 µM

## (14α)-(Quinolyl-8′-oxy)-3,19-acetonylidene andrographolide [5a17]
E. coli
  inhibition rate (%) EC: (44) %
S. aureus
  inhibition rate (%) SA: (35) %
E. faecalis
  IC50: 10.4 ± 2.5 µM
[1]
  EC50: 4.71 ± 0.17 µM
[2]
  EC50: > 10 µM
[3]
  EC50: > 10 µM
AD-293 cells [4]
  CC50: > 10 µM

## (14β)-(2′-Carboxy ethyl ester)phenoxy-3,19-acetonylidene andrographolide [5b8]
E. coli
  inhibition rate EC (symbol /): / (“/”represents no inhibition or lower than 10% inhibition rate at 250 μM of tested compound)
S. aureus
  inhibition rate SA (symbol /): / (“/”represents no inhibition or lower than 10% inhibition rate at 250 μM of tested compound)
E. faecalis
  inhibition rate (%) EF: (22) %

## (14β)-(2′-Carboxy ethyl ester-4′-nitro)phenoxy-andrographolide [6b1]
E. coli
  inhibition rate (%) EC: (17) %
S. aureus
  inhibition rate (%) SA: (40) %
E. faecalis
  IC50: 27.7 ± 3.5 µM

## (14β)-(2′-Nitro)phenoxy-3,19-acetonylidene andrographolide [5b6]
E. coli
  inhibition rate EC (symbol /): / (“/”represents no inhibition or lower than 10% inhibition rate at 250 μM of tested compound)
S. aureus
  inhibition rate SA (symbol /): / (“/”represents no inhibition or lower than 10% inhibition rate at 250 μM of tested compound)
E. faecalis
  inhibition rate (%) EF: 43%

## (14β)-(3′-Fluoro-4′-nitro)phenoxy-3,19-acetonylidene andrographolide [5b4]
E. coli
  inhibition rate (%) EC: (19) %
S. aureus
  inhibition rate (%) SA: (15) %
E. faecalis
  inhibition rate (%) EF: (73) %

## (14β)-(4′-Carboxy ethyl ester)phenoxy-3,19-acetonylidene andrographolide [5b9]
E. coli
  inhibition rate EC (symbol /): / (“/”represents no inhibition or lower than 10% inhibition rate at 250 μM of tested compound)
S. aureus
  inhibition rate (%) SA: (15) %
E. faecalis
  inhibition rate (%) EF: (42) %

## (14β)-(4′-Cyano)phenoxy-3,19-acetonylidene andrographolide [5b10]
E. coli
  inhibition rate (%) EC: (20) %
S. aureus
  inhibition rate (%) SA: (22) %
E. faecalis
  inhibition rate (%) EF: (46) %

## (14β)-(Quinolyl-4′-oxy)-3,19-acetonylidene andrographolide [5b16]
E. coli
  inhibition rate EC (symbol /): / (“/”represents no inhibition or lower than 10% inhibition rate at 250 μM of tested compound)
S. aureus
  inhibition rate SA (symbol /): / (“/”represents no inhibition or lower than 10% inhibition rate at 250 μM of tested compound)
E. faecalis
  IC50: 15.5 ± 4.2 µM
